The values that follow are results of earlier work, collected in paper PMC11224556, “Next-generation of BBQ analogues that selectively target breast cancer” (Frontiers in Chemistry, 2024).

Design in all cases: method as in Gilbert et al., 2020
The test system of one data set is SJ-G2 (brain) cells. To be noted: SJ-G2, Brain (GBM); MTT, 72 h; ref Gilbert et al., 2020; cited from earlier work.
In a further data set the test system is A2780 (ovary) cells. Conditions: MTT, 72 h, ref Gilbert et al., 2020; cited from earlier work.
The subject of a further data set is Du145 (prostate) cells. To be noted: MTT, 72 h, ref Gilbert et al., 2020; cited from earlier work.
A further data set relates to H460 (lung, ER+) cells. To be noted: MTT, 72 h, ref Gilbert et al., 2020; cited from earlier work.
The test system of another data set is T47D breast cancer cells. Conditions: Breast (ER/PR), MTT, 72 h, ref Gilbert et al., 2020; cited from earlier work.
The subject of data set [1] is ZR-75-1 breast cancer cells. To be noted: ZR-75-1, Breast (ER/PR); MTT, 72 h; ref Gilbert et al., 2020; cited from earlier work.
Data set [2] deals with MDA-MB-468 breast cancer cells. Conditions: MDA-MB-468, Breast (TN); MTT, 72 h; ref Gilbert et al., 2020; cited from earlier work.
Data set [3] deals with BT474 breast cancer cells. Conditions: BT474, Breast (ER/PR/HER2); MTT, 72 h; ref Gilbert et al., 2020; cited from earlier work.
Data set [4] has as its system MDA-MB-231 breast cancer cells. To be noted: MDA-MB-231, Breast (TN); MTT, 72 h; ref Gilbert et al., 2020; cited from earlier work.

As a reminder, the GI50 is the concentration that inhibits growth by half. Turning to `Nc1ccccc1N1C(=O)c2cccc3cccc(c23)C1=O` [Compound 2, 2-(2-aminophenyl)-1H-benzo[de]isoquinoline-1,3(2H)-dione], the concentration for 50% growth inhibition (GI50) is > 50 µM with SJ-G2 (brain) cells; 21 ± 4 µM in the data set with A2780 (ovary) cells; > 50 µM with Du145 (prostate) cells; 15 ± 7.5 µM in the data set on H460 (lung, ER+) cells; 180 ± 20 nM in the data set on T47D breast cancer cells; 120 ± 30 nM in data set [1]. Also, the concentration for 50% growth inhibition (GI50) is 100 ± 20 nM in [2], 430 ± 70 nM in data set [3] and 35 ± 3 µM in [4].
